In ChEMBL document CHEMBL1649287, “Postantibiotic effect of ceftaroline against gram-positive organisms” (2009):
Converted amounts (≈) assume the structure as drawn.

What was measured:
Assay type in all cases: functional
Staphylococcus aureus [1] = assay: Antimicrobial activity against methicillin-susceptible, vancomycin-susceptible Staphylococcus aureus sox1 assessed as time required to induce sub-MIC effect at 0.2 times MIC after 1 hr by plate counting method; settings: sox1, 1 h
Enterococcus faecalis [2] = assay: Antimicrobial activity against vancomycin-sensitive Enterococcus faecalis 10 assessed as time required to induce sub-MIC effect at 0.2 times MIC after 1 hr by plate counting method; settings: Enterococcus faecalis, 10, 1 h
Enterococcus faecalis [3] = assay: Antimicrobial activity against vancomycin-resistant Enterococcus faecalis 609 assessed as time required to induce sub-MIC effect at 0.2 times MIC after 1 hr by plate counting method; settings: Enterococcus faecalis, 609, 1 h
Streptococcus pneumoniae [4] = assay: Antimicrobial activity against Penicillin-susceptible Streptococcus pneumoniae ATCC 49617 assessed as time required to induce post antibiotic sub-MIC effect at 0.2 times MIC after 1 hr by plate counting method; settings: ATCC 49617, 1 h
Streptococcus pneumoniae [5] = assay: Antimicrobial activity against Penicillin-, erythromycin-resistant Streptococcus pneumoniae 37 assessed as time required to induce post antibiotic sub-MIC effect at 0.2 times MIC after 1 hr by plate counting method; settings: Streptococcus pneumoniae, 37, 1 h
Staphylococcus aureus [6] = assay: Antimicrobial activity against methicillin-resistant, vancomycin-resistant Staphylococcus aureus 770 assessed as time required to induce post antibiotic sub-MIC effect at 0.2 times MIC after 1 hr by plate counting method; settings: Staphylococcus aureus, 770, 1 h
Staphylococcus aureus [7] = assay: Antimicrobial activity against methicillin-resistant, vancomycin-intermediate Staphylococcus aureus 510 assessed as time required to induce post antibiotic sub-MIC effect at 0.2 times MIC after 1 hr by plate counting method; settings: Staphylococcus aureus, 510, 1 h
Enterococcus faecalis [8] = assay: Antimicrobial activity against vancomycin-resistant Enterococcus faecalis 266 assessed as time required to induce post antibiotic sub-MIC effect at 0.2 times MIC after 1 hr by plate counting method; settings: Enterococcus faecalis, 266, 1 h
Streptococcus pneumoniae [9] = assay: Antimicrobial activity against Penicillin-susceptible Streptococcus pneumoniae s502 assessed as time required to induce sub-MIC effect at 0.3 times MIC after 1 hr by plate counting method; settings: s502, 1 h
Streptococcus pneumoniae [10] = assay: Antimicrobial activity against Penicillin-susceptible Streptococcus pneumoniae ATCC 49617 assessed as time required to induce sub-MIC effect at 0.3 times MIC after 1 hr by plate counting method; settings: ATCC 49617, 1 h
Staphylococcus aureus [11] = assay: Antimicrobial activity against methicillin-susceptible, vancomycin-susceptible Staphylococcus aureus ATCC 29213 assessed as time required to induce sub-MIC effect at 0.3 times MIC after 1 hr by plate counting method; settings: ATCC 29213, 1 h
Staphylococcus aureus [12] = assay: Antimicrobial activity against methicillin-resistant, vancomycin-resistant Staphylococcus aureus 770 assessed as time required to induce sub-MIC effect at 0.3 times MIC after 1 hr by plate counting method; settings: Staphylococcus aureus, 770, 1 h
Enterococcus faecalis [13] = assay: Antimicrobial activity against vancomycin-resistant Enterococcus faecalis 266 assessed as time required to induce sub-MIC effect at 0.3 times MIC after 1 hr by plate counting method; settings: Enterococcus faecalis, 266, 1 h
Enterococcus faecalis [14] = assay: Antimicrobial activity against vancomycin-resistant Enterococcus faecalis 609 assessed as time required to induce sub-MIC effect at 0.3 times MIC after 1 hr by plate counting method; settings: Enterococcus faecalis, 609, 1 h
Streptococcus pneumoniae [15] = assay: Antimicrobial activity against Penicillin-susceptible Streptococcus pneumoniae s502 assessed as time required to induce post antibiotic sub-MIC effect at 0.3 times MIC after 1 hr by plate counting method; settings: s502, 1 h
Streptococcus pneumoniae [16] = assay: Antimicrobial activity against Penicillin-susceptible Streptococcus pneumoniae ATCC 49617 assessed as time required to induce post antibiotic sub-MIC effect at 0.3 times MIC after 1 hr by plate counting method; settings: ATCC 49617, 1 h
Streptococcus pneumoniae [17] = assay: Antimicrobial activity against Penicillin-, erythromycin-resistant Streptococcus pneumoniae 37 assessed as time required to induce post antibiotic sub-MIC effect at 0.3 times MIC after 1 hr by plate counting method; settings: Streptococcus pneumoniae, 37, 1 h
Staphylococcus aureus [18] = assay: Antimicrobial activity against methicillin-susceptible, vancomycin-susceptible Staphylococcus aureus ATCC 29213 assessed as time required to induce post antibiotic sub-MIC effect at 0.3 times MIC after 1 hr by plate counting method; settings: ATCC 29213, 1 h
Staphylococcus aureus [19] = assay: Antimicrobial activity against methicillin-susceptible, vancomycin-susceptible Staphylococcus aureus sox1 assessed as time required to induce post antibiotic sub-MIC effect at 0.3 times MIC after 1 hr by plate counting method; settings: sox1, 1 h
Staphylococcus aureus [20] = assay: Antimicrobial activity against methicillin-resistant, vancomycin-hetroresistant Staphylococcus aureus 618 assessed as time required to induce post antibiotic sub-MIC effect at 0.3 times MIC after 1 hr by plate counting method; settings: Staphylococcus aureus, 618, 1 h
Staphylococcus aureus [21] = assay: Antimicrobial activity against methicillin-resistant, vancomycin-intermediate Staphylococcus aureus 510 assessed as time required to induce post antibiotic sub-MIC effect at 0.3 times MIC after 1 hr by plate counting method; settings: Staphylococcus aureus, 510, 1 h
Enterococcus faecalis [22] = assay: Antimicrobial activity against vancomycin-resistant Enterococcus faecalis 609 assessed as time required to induce post antibiotic sub-MIC effect at 0.3 times MIC after 1 hr by plate counting method; settings: Enterococcus faecalis, 609, 1 h
Streptococcus pneumoniae [23] = assay: Antimicrobial activity against Penicillin-susceptible Streptococcus pneumoniae ATCC 49617 assessed as time required to induce sub-MIC effect at 0.4 times MIC after 1 hr by plate counting method; settings: ATCC 49617, 1 h
Staphylococcus aureus [24] = assay: Antimicrobial activity against methicillin-susceptible, vancomycin-susceptible Staphylococcus aureus ATCC 29213 assessed as time required to induce post antibiotic sub-MIC effect at 0.4 times MIC after 1 hr by plate counting method; settings: ATCC 29213, 1 h
Enterococcus faecalis [25] = assay: Antimicrobial activity against vancomycin-sensitive Enterococcus faecalis 10 assessed as time required to induce post antibiotic sub-MIC effect at 0.4 times MIC after 1 hr by plate counting method; settings: Enterococcus faecalis, 10, 1 h
Staphylococcus aureus [26] = assay: Antimicrobial activity against methicillin-resistant, vancomycin-resistant Staphylococcus aureus 770 by microdilution method
Enterococcus faecalis [27] = assay: Antimicrobial activity against vancomycin-sensitive Enterococcus faecalis 10 by microdilution method
Enterococcus faecalis [28] = assay: Antimicrobial activity against vancomycin-sensitive Enterococcus faecalis 20 by microdilution method
Enterococcus faecalis [29] = assay: Antimicrobial activity against vancomycin-resistant Enterococcus faecalis 266 by microdilution method
Enterococcus faecalis [30] = assay: Antimicrobial activity against vancomycin-resistant Enterococcus faecalis 609 by microdilution method
Streptococcus pneumoniae [31] = assay: Antimicrobial activity against Penicillin-susceptible Streptococcus pneumoniae ATCC 49617 assessed as post antibiotic effect at 10 times MIC after 1 hr by plate counting method; settings: ATCC 49617, 1 h
Staphylococcus aureus [32] = assay: Antimicrobial activity against methicillin-resistant, vancomycin-resistant Staphylococcus aureus 770 assessed as post antibiotic effect at 10 times MIC after 1 hr by plate counting method; settings: Staphylococcus aureus, 770, 1 h
Staphylococcus aureus [33] = assay: Antimicrobial activity against methicillin-resistant, vancomycin-intermediate Staphylococcus aureus 510 assessed as post antibiotic effect at 10 times MIC after 1 hr by plate counting method; settings: Staphylococcus aureus, 510, 1 h
Enterococcus faecalis [34] = assay: Antimicrobial activity against vancomycin-sensitive Enterococcus faecalis 10 assessed as post antibiotic effect at 10 times MIC after 1 hr by plate counting method; settings: Enterococcus faecalis, 10, 1 h
Enterococcus faecalis [35] = assay: Antimicrobial activity against vancomycin-resistant Enterococcus faecalis 266 assessed as post antibiotic effect at 10 times MIC after 1 hr by plate counting method; settings: Enterococcus faecalis, 266, 1 h
Streptococcus pneumoniae [36] = assay: Antimicrobial activity against Penicillin-susceptible Streptococcus pneumoniae s502 assessed as time required to induce sub-MIC effect at 0.2 times MIC after 1 hr by plate counting method

Question: `CCO/N=C(\C(=O)N[C@@H]1C(=O)N2C(C(=O)[O-])=C(Sc3nc(-c4cc[n+](C)cc4)cs3)CS[C@H]12)c1nsc(NP(=O)(O)O)n1` [CEFTAROLINE FOSAMIL] was tested. Which PAE (Staphylococcus aureus [1]) did it give?
Answer: 0.2 h

Question: What about the PAE (Enterococcus faecalis [2]) of the same compound?
Answer: 0.8 h

Question: What about the time (Enterococcus faecalis [3]) of the same compound?
Answer: 1.4 h

Question: And the PAE (Streptococcus pneumoniae [4])?
Answer: 4.1 h

Question: And the time (Streptococcus pneumoniae [5])?
Answer: 1.9 h

Question: And the time (Staphylococcus aureus [6])?
Answer: 1.5 h

Question: And the time (Staphylococcus aureus [7])?
Answer: 5.4 h

Question: What about the time (Enterococcus faecalis [8]) of the same compound?
Answer: 8.3 h

Question: What about the PAE (Streptococcus pneumoniae [9]) of the same compound?
Answer: 0.3 h

Question: And the PAE (Streptococcus pneumoniae [10])?
Answer: 0.7 h

Question: And the PAE (Staphylococcus aureus [11])?
Answer: 0.8 h

Question: What about the time (Staphylococcus aureus [12]) of the same compound?
Answer: 0.5 h

Question: What about the time (Enterococcus faecalis [13]) of the same compound?
Answer: 1.8 h

Question: And the time (Enterococcus faecalis [14])?
Answer: 1.4 h

Question: And the PAE (Streptococcus pneumoniae [15])?
Answer: 3.5 h

Question: What about the PAE (Streptococcus pneumoniae [16]) of the same compound?
Answer: 5.9 h

Question: What about the time (Streptococcus pneumoniae [17]) of the same compound?
Answer: 3 h

Question: And the PAE (Staphylococcus aureus [18])?
Answer: 4.5 h

Question: And the PAE (Staphylococcus aureus [19])?
Answer: 3.6 h

Question: And the time (Staphylococcus aureus [20])?
Answer: 2.7 h

Question: And the time (Staphylococcus aureus [21])?
Answer: > 9.1 h

Question: And the time (Enterococcus faecalis [22])?
Answer: 3.3 h

Question: What about the PAE (Streptococcus pneumoniae [23]) of the same compound?
Answer: 0.8 h

Question: What about the PAE (Staphylococcus aureus [24]) of the same compound?
Answer: > 10.5 h

Question: And the PAE (Enterococcus faecalis [25])?
Answer: 8.5 h

Question: What about the MIC (Staphylococcus aureus [26]) of the same compound?
Answer: 1 µg/mL (≈ 1.46 µM)

Question: And the MIC (Enterococcus faecalis [27])?
Answer: 0.5 µg/mL (≈ 0.73 µM)

Question: What about the MIC (Enterococcus faecalis [28]) of the same compound?
Answer: 0.5 µg/mL (≈ 0.73 µM)

Question: What about the MIC (Enterococcus faecalis [29]) of the same compound?
Answer: 2 µg/mL (≈ 2.92 µM)

Question: And the MIC (Enterococcus faecalis [30])?
Answer: 1 µg/mL (≈ 1.46 µM)

Question: What about the PAE (Streptococcus pneumoniae [31]) of the same compound?
Answer: 1.6 h

Question: And the PAE (Staphylococcus aureus [32])?
Answer: 1.3 h

Question: What about the PAE (Staphylococcus aureus [33]) of the same compound?
Answer: 1.4 h

Question: And the PAE (Enterococcus faecalis [34])?
Answer: 0.5 h

Question: And the PAE (Enterococcus faecalis [35])?
Answer: 0.9 h

Question: What about the PAE (Streptococcus pneumoniae [36]) of the same compound?
Answer: 0 h
